Source: patent US8021851B2, “Thr51 phosphorylated HP 1β protein for the assessment of DNA damage” (Cambridge Enterprise Limited, priority 2009, dated 2011)

Tests used:
[1] = test system: γH2AX; test: γH2AX foci formation / staining in MEFs after IR; type: cell-based, mouse
Procedure: Cell staining and immunofluorescence analyses were carried out as described previously^2. Briefly, transfected and untransfected cells were grown on coverslips and subjected to different treatments as indicated in the text prior to fixation. Cells were fixed using 4% formaldehyde for 10-15 min, followed by solubilisation and blocking with 3% BSA in 1×PBS, 0.05% Tween-20, 0.05% Triton. Imaging was performed on a Zeiss LSM510 Meta confocal microscope, using a 40× objective with fixed optical slice, laser power and detector/amplifier settings for all samples across each individual experiment to allow comparison. Quantitative analysis for HP1βT51P and γH2AX staining was performed using mean per-nucleus intensity to avoid any discrepancy in the definition or counting of foci. This was performed on identically stained and imaged samples by estimation of raw pixel intensity values for a defined number of cells, specified for each experiment, through the Zeiss LSM software, and comparison of the different groups by one-way ANOVA and Dunnet's post test. […] The plates were imaged and analyzed using a Cellomics high content screening microscope, using a 40× non-immersion objective. […] 500 cells were analysed per well, and standard errors calculated from an average of the means of 8 wells.

[2] = test system: HP1βT51P levels; test: anti-HP1βT51P detection in cell extracts; type: cell-based
[3] = test system: EGFP-HP1β; test: FRAP dynamics of EGFP-HP1β in living cells; type: cell-based, mouse; details: preexposure to 75 μM TBB (FIG. 20)
Procedure: MEFs were seeded in 2-well Lab-Tek chambers (Nunc) after transfection with the EGFP-HP1β construct. Before imaging, growth medium was replaced with phenol-red free L15 imaging medium. Live cell imaging and photobleaching experiments were performed using a 40× 1.2 NA water immersion lens on a Zeiss LSM 510 Meta confocal microscope (using a heating chamber to maintain the cells at […]) with the 488 nm line of an Argon laser operating at 6.1 A.
FRAP analysis was performed by a method previously established in our lab 27. For low-bleach FRAP (see FIG. S1), selected regions of HC and EC were simultaneously bleached in a diffraction-limited spot with a pulse of 2 iterations at 100% of the […] Ar laser. Post-bleach images were acquired at a lower frequency of an image every 400 msec. Image bleach was corrected separately for EC and HC regions using a nearby unbleached cell. For high-bleach FRAP experiments, photobleaching was with 35 iterations at the same laser output, and images were collected every 290 msec. The normalized curves were plotted in GraphPad Prism, and recovery curves were fitted to a single order exponential equation Y=Ymax*(1−exp(−K*X)) to yield a recovery constant K; shown to be different among groups by the sum of squares f-test at p<0.05.

Row | SMILES | γH2AX foci formation ([1]; MEFs pre-exposed to 75 μM TBB, 5 min after 3 Gy IR) | pixel intensity of γH2AX staining after damage ([1]; TBB preexposure, n=20 per sample, p<0.01) | HP1βT51P levels detected by anti-HP1βT51P in cell extracts ([2]; TBB at 75 μM for 6 hrs, with and without etoposide) | changes in FRAP dynamics of EGFP-HP1β triggered by DNA damage [3] | HP1βT51P species detected by anti-HP1βT51P in cell extracts ([2]; etoposide treatment)
1 | Brc1c(Br)c(Br)c2[nH]cnc2c1Br [TBB, 4,5,6,7-tetrabromo-benzimidazole] | suppresses γH2AX foci formation | reduced in a dose-dependent manner | diminishes both the background detection and etoposide-induced enhancement of HP1βT51P levels | suppresses in living cells the changes in FRAP dynamics | 
2 | COc1cc([C@@H]2c3cc4c(cc3[C@@H](O[C@@H]3O[C@@H]5CO[C@@H](C)O[C@H]5[C@H](O)[C@H]3O)[C@H]3COC(=O)[C@H]23)OCO4)cc(OC)c1O [etoposide] |  |  |  |  | enhanced in a dose-dependent manner
